Results on nine compounds are retold here after US20230046728A1, “TECHNOLOGIES USEFUL FOR ASSESSING PERMEABILITY” (FOG PHARMACEUTICALS, INC., priority 2019, published 2023).

For data set [1], the system named is Expi293 cells transfected with His-Halotag. Nature of the data set: Library cell penetration assay, cell crash method (Example 6). Format: in vitro ADME, human. As for the experimental part: Animal cells (e.g., Expi293 cells or human HEK 293 cells) were seeded in tissue culture plates and cultured in Opti-MEM media. The cells were set in PETG flasks at a concentration of 6×10^5 cells/mL and a volume of 30 mL. The cell viability was checked to be above 90-93%. The flasks were placed in a shaking incubator at 300 rpm in 8% CO2.
After 24 hours of incubation, for each flask, one 1.5-mL Lo-bind tube and one 2-mL Lo-Bind tube were prepared. In the 1.5-mL tube, 30 μg of polyhistidine-tagged halotag (His-Halotag) plasmid and Opti-MEM media were added to provide a 1-mL mixture. In the 2-mL Lo-Bind tube, 60 μL of ExpiFectamine and 940 μL of Opti-MEM were added. After 5 minutes, the plasmid/Opti-MEM mixture was added to the ExpiFectamine/Opti-MEM mixture. The combined mixture was placed in an incubator at room temperature for 20 minutes, which was subsequently added to the flask.
After 48 hours of transfection, the transfected cells were checked for viability (90% or higher). The transfected cells were transferred to a protein Lo-Bind Eppendorf 96-well deep well plate (1000 μL), where each well contained 1 million cells in 500 μL of Expi293 media.
Solutions of candidate compounds, either individual peptides or peptides from a peptide library (DPLs), were received at a stock concentration of 10 mM and diluted in DMSO and kept in a “Source Plate”. For DPLs, the peptide concentration in the “Source Plate” was 1 mM, whereas for individual peptides, the concentration was either 100 μM (for a final concentration of 100 nM) or 10 μM (for a final concentration of 10 nM). […] of the DPL or individual peptide solution was added in triplicates to the 96-well plate. The cells were kept in a shaking incubator at 300 rpm and 37 ° C., 8% CO2 overnight for about 18-20 hours.
The following day, one of the following two methods was performed: i) capture beads method or ii) cell crash method.
Cell crash method: the 96-well plate was placed in the centrifuge at 300 g for 5 minutes. 720 μL of the supernatant was removed. The cells were resuspended in residual 200 μL of media. The suspensions were transferred to a 96-well v-bottom plate, which was placed in the centrifuge at 300 g for an additional 5 minutes. All remaining media was removed. The cell pellets were washed with 200 μL of PBS, mixed and placed back in the centrifuge at 300 g and 4 ° C. for an additional 5 minutes. The supernatant was removed and 80 μL of PBS was added.
80 μL of eluted proteins/peptides from the capture beads method or the PBD solution from the cell crash method was transferred into a deepwell low binding plate (500 μL). 80 μL of ammonium hydroxide was added. The plate was kept on a shaker at 37 ° C. for 3 hours. The plate was dried in a speedvac overnight.
The following day, the dried cell pellet was resuspended in 70 μL of 47.5% water with 0.1% FA/47.5% ACN with 0.1% FA/10 μM pepmix (10 mM stock)/5% fresh DMSO. The mixture was let sit in the plate for 1 hour to allow the dissolution of the pellet. If the sample appeared cloudy, more resuspension solution was added (50 μL at a time). 50 μL was transferred directly to the mass spec plate and the plate was sealed with the 384-well plate seal.
(§1) Once all samples were added (including cell free), the plate was placed in an autosampler of a mass spectrometer. For the mass spectrometry analysis, methods from example 1 were employed.
Results from certain assessment were presented blow. Cell crash method was utilized. Mass Shifted Peptide Theoretical Max signal is signal of an agent comprising —OH obtained when using the DhaA to convert input agent comprising —Cl into product agent comprising —OH form without involving cells (multiple agents may be converted simultaneously; in some embodiments, can be performed library by library). In some embodiments, each library pool plus positive and negative references was tested in a single well, which in some cases contain about a million or so cells. […]

Another data set deals with DhaA enzyme (Rhodococcus rhodochrous, UniProt P0A3G2). The experiment in a line: Cell free peptide/DhaA conversion, Mass Shifted Peptide Theoretical Max signal (Example 6). It counts as biochemical. The settings on record: DhaA converts —Cl input agent into —OH product agent, MS signal. As for the experimental part:
For the cell free systems, DPLs were diluted in a 500 μL DPW plate (library dilution plate). Individual peptides were diluted individually in low-bind tubes until making the final working dilution in PBS. At this point, the individual peptides were transferred to the library dilution plate. By having all final dilutions in one plate, a multichannel was used to transfer the diluted peptides to the cell free plates. The same design as “Source Plate” was used for the cell assay. For the peptide only plate, 45 μL of PBS was added to each well and 5 μL of the diluted library/peptide was added in triplicates. For peptide/DhaA plate, 5 μL of 50 μM DhaA enzyme was added, followed by 40 μL of PBS and 5 μL of the diluted library/peptide. Both plates were kept at the bench top thermomixer at 350 rpm and 37 ° C. overnight. The next day, 2 mL of a cell free solution was prepared with 1 mL of DMSO, 20 μL of PepMix and 980 μL of a 1:1 ratio of ACN/0.1% FA and H2O/0.1% FA. 5 μL of the cell free solution was added to a 384 well plate, followed by 45 μL of the cell free sample.
as §1
Results from certain assessment were presented blow. Cell crash method was utilized. Mass Shifted Peptide Theoretical Max signal is signal of an agent comprising —OH obtained when using the DhaA to convert input agent comprising —Cl into product agent comprising —OH form without involving cells (multiple agents may be converted simultaneously; in some embodiments, can be performed library by library). In some embodiments, each library pool plus positive and negative references was tested in a single well, which in some cases contain about a million or so cells. Each library pool is an individually prepared library with no purifications—all members mixed together along with side products, etc. “Cell Penetration Score” is calculated by dividing “Mass Shifted Peptide Signal in Cells” by “Mass Shifted Peptide Theoretical Max Signal” for each pair of replicates, then averaging those values across replicates; additionally or alternatively, COR and/or RPF may also be utilized.

[2] abbreviates: MS signal of unconverted —Cl agent from cells, library pool or individual peptide.
The mark [3] stands for this setting: MS signal of —OH agent from cells, library pool or individual peptide.
The mark [4] stands for this setting: Mass Shifted Peptide Signal in Cells divided by Mass Shifted Peptide Theoretical Max Signal, averaged across replicates.

DhaA enzyme, sequence (P0A3G2 whole entry): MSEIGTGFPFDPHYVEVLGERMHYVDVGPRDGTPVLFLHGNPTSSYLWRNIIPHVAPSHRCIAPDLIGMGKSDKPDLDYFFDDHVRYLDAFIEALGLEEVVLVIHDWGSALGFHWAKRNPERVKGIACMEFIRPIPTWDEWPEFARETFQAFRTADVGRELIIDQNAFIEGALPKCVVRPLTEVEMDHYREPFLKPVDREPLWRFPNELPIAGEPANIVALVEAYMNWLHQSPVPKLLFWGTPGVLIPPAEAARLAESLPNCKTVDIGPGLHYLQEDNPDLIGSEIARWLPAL

On to “HaloTagO2-Leu-Thr-Phe-ReN-Glu-Tyr-Trp-Ala-Ala-Cba-Az-Ser-Ala-Ala-NHMe [PEP000135]”, for which the “Peptide Signal in Cells (from cells; agents comprising —Cl)” value in data set [1] (setting [2]) was 0E+00. Moreover, in data set [1] (setting [3]), the “Mass Shifted Peptide Signal in Cells” value was found to be 3E+05. Besides, in data set [1] (setting [4]), the “Cell Penetration Score” value came to 7. The “Mass Shifted Peptide Theoretical Max Signal” value on DhaA enzyme is listed as 5E+06.

In the case of “HaloTagO2-Leu-Thr-Phe-ReN-Ala-Tyr-Trp-Ala-Gln-Cba-Az-Ser-Ala-Ala-NHMe [PEP000130]”, the “Peptide Signal in Cells (from cells; agents comprising —Cl)” value in data set [1] (setting [2]) came out at 5E+03. The “Mass Shifted Peptide Signal in Cells” value in data set [1] (setting [3]) was 2E+06. Moreover, in data set [1] (setting [4]), the “Cell Penetration Score” value is 27. Moreover, on DhaA enzyme, the “Mass Shifted Peptide Theoretical Max Signal” value came out at 7E+06.

On to “HaloTagO2-Leu-Thr-Phe-ReN-Thr-Tyr-Trp-Ala-Gln-Cba-Az-Ser-Ala-Ala-NHMe [PEP000132]”, for which, in data set [1] (setting [2]), the “Peptide Signal in Cells (from cells; agents comprising —Cl)” value came out at 0E+00. For the same compound, the “Mass Shifted Peptide Signal in Cells” value in data set [1] (setting [3]) is given as 1E+06. The “Cell Penetration Score” value in data set [1] (setting [4]) turned out to be 20. On DhaA enzyme, the “Mass Shifted Peptide Theoretical Max Signal” value was determined as 6E+06.

For “HaloTagO2-Leu-Thr-Phe-ReN-Glu-Tyr-Trp-Ala-Gln-Cba-Az-Ser-Ala-Ala-NHMe [PEP000131]”, in data set [1] (setting [2]), the “Peptide Signal in Cells (from cells; agents comprising —Cl)” value came out at 0E+00. In data set [1] (setting [3]), the “Mass Shifted Peptide Signal in Cells” value is reported as 1E+05. Also, the “Cell Penetration Score” value in data set [1] (setting [4]) was determined as 3. Moreover, the “Mass Shifted Peptide Theoretical Max Signal” value on DhaA enzyme is on record as 3E+06.

In the case of “HaloTagO2-Leu-Thr-Phe-ReN-Glu-Tyr-Trp-Ala-Gln-Cba-Az-Ser-Ala-Ala-NHMe [PEP000136]”, the “Peptide Signal in Cells (from cells; agents comprising —Cl)” value in data set [1] (setting [2]) was found to be 0E+00. In addition, the “Mass Shifted Peptide Signal in Cells” value in data set [1] (setting [3]) amounted to 1E+04. The “Cell Penetration Score” value in data set [1] (setting [4]) is listed as 0. The “Mass Shifted Peptide Theoretical Max Signal” value on DhaA enzyme is 4E+06.

Turning to “HaloTagO2-Leu-Thr-Phe-ReN-Ala-Tyr-Trp-Ala-Gln-Cba-Az-Ser-Ala-Ala-NH2 [PEP000127]”, in data set [1] (setting [2]), the “Peptide Signal in Cells (from cells; agents comprising —Cl)” value was 0E+00. For the same compound, in data set [1] (setting [3]), the “Mass Shifted Peptide Signal in Cells” value is on record as 1E+06. Further, the “Cell Penetration Score” value in data set [1] (setting [4]) stood at 17. For the same compound, on DhaA enzyme, the “Mass Shifted Peptide Theoretical Max Signal” value amounted to 8E+06.

Take “HaloTagO2-Leu-Thr-Phe-ReN-Glu-Tyr-Trp-Ala-Thr-Cba-Az-Ser-Ala-Ala-NH2 [PEP000134]”: the “Peptide Signal in Cells (from cells; agents comprising —Cl)” value in data set [1] (setting [2]) turned out to be 3E+03. The “Mass Shifted Peptide Signal in Cells” value in data set [1] (setting [3]) stood at 1E+05. In addition, in data set [1] (setting [4]), the “Cell Penetration Score” value is reported as 2. The “Mass Shifted Peptide Theoretical Max Signal” value at DhaA enzyme is 6E+06.

`CC(C)C[C@H](NC(=O)CCC(=O)NCCOCCOCCCCCCCl)C(=O)N[C@H](C(=O)N[C@@H](Cc1ccccc1)C(=O)N[C@]1(C)CCCCCCC=CCCC[C@@](C)(C(=O)N[C@@H](CO)C(=O)N[C@@H](C)C(=O)N[C@@H](C)C(N)=O)NC(=O)[C@H](CC2CCC2)NC(=O)[C@H](CCC(N)=O)NC(=O)[C@H](C)NC(=O)[C@H](Cc2c[nH]c3ccccc23)NC(=O)[C@H](Cc2ccc(O)cc2)NC(=O)[C@H](C)NC1=O)[C@@H](C)O` [PEP000116, HaloTagO2-Leu-Thr-Phe-R8-Ala-Tyr-Trp-Ala-Gln-Cba-S5-Ser-Ala-Ala-NH2]: in data set [1] (Mass Shifted Peptide Signal in Cells divided by Theoretical Max Signal per replicate pair, averaged), the “Cell Penetration Score” value amounted to 475. The “Peptide Signal in Cells (from cells; agents comprising —Cl)” value in data set [1] (library pool tested as mixture, MS signal of unconverted —Cl agent) is listed as 4E+07. Moreover, the “Mass Shifted Peptide Signal in Cells” value in data set [1] (library pool tested as mixture, MS signal of —OH agent) is 4E+07.

In the case of `CNC(=O)[C@H](C)NC(=O)[C@H](C)NC(=O)[C@H](CO)NC(=O)[C@]1(C)CCCC=CCCCCCC[C@@](C)(NC(=O)[C@H](Cc2ccccc2)NC(=O)[C@@H](NC(=O)[C@H](CC(C)C)NC(=O)CCC(=O)NCCOCCOCCCCCCCl)[C@@H](C)O)C(=O)N[C@@H](CCC(=O)O)C(=O)N[C@@H](Cc2ccc(O)cc2)C(=O)N[C@@H](Cc2c[nH]c3ccccc23)C(=O)N[C@@H](C)C(=O)N[C@@H](CCC(N)=O)C(=O)N[C@@H](CC2CCC2)C(=O)N1` (single isomer, unassigned) [PEP000125, HaloTagO2-Leu-Thr-Phe-R8-Glu-Tyr-Trp-Ala-Gln-Cba-S5-Ser-Ala-Ala-NHMe], in data set [1] (setting [2]), the “Peptide Signal in Cells (from cells; agents comprising —Cl)” value turned out to be 4E+06. Moreover, the “Mass Shifted Peptide Signal in Cells” value in data set [1] (setting [3]) is listed as 5E+07. For the same compound, the “Cell Penetration Score” value in data set [1] (setting [4]) was determined as 888.
